# According to patent US12622910B2, “Inhibitors of Bruton's tyrosine kinase and methods of their use” (Janssen Pharmaceutica NV, priority 2021, dated 2026):
# Read-outs that look alike come from different tables or passages of the source.
# Assay: Phase 1 first-in-human study, plasma pharmacokinetics
# Type: in vivo
# Conditions: for Tmax / Cmax / AUC(0-t) / half-life / AUC(0-inf): plasma
# Procedure: Safety, tolerability, PK, and BTKO were assessed for six doses of compound of Formula (III) oral solution (4, 12, 36, 100, 200, 400 mg) in participants under fasted conditions. The SAD part comprised 10 cohorts of 8 participants each (FIG. 1). In each cohort receiving compound of Formula (III) oral solution (Cohorts 1-9), 6 participants were randomized to receive compound of Formula (III) and 2 to receive placebo. All participants in Cohort 10 received compound of Formula (III) as an oral capsule. All 10 cohorts included 2 sentinel participants who were dosed ˜24 hours prior to the rest of the cohort. In cohorts receiving compound of Formula (III) oral solution, 1 sentinel participant received compound of Formula (III) and the other received placebo.
# Six male escalating dose cohorts received a single oral dose of 4, 12, 36, 100, 200, 400 mg compound of Formula (III) or placebo solution under fasted conditions. Gender effects were assessed in 2 female cohorts whose participants received either a 36 or 100 mg dose of compound of Formula (III) or placebo as an oral solution under fasted conditions. Food effects were evaluated in a male cohort receiving compound of Formula (III) 100 mg or placebo as an oral solution after a high-fat breakfast.
# Safety, tolerability, and PK of a solid dose formulation of compound of Formula (III) were assessed in an additional male cohort (Cohort 10) that received 3×35 mg (105 mg) of compound of Formula (III) in the fasted state. Since all the participants received the same dose of compound of Formula (III), this cohort was not blinded.
# Safety, tolerability, PK, and BTKO following multiple compound of Formula (III) doses were evaluated in 3 dose escalation cohorts with a total of 18 participants (males: 9, females: 9) receiving active study drug. In each cohort, 3 males and 3 females were randomized to receive 36 mg once-daily (QD), 100 mg QD, or 200 mg QD compound of Formula (III) oral solution and 3 participants (males: 2; female: 1) to receive placebo. Two male participants in each cohort served as sentinel participants: one received compound of Formula (III) and other received placebo ˜48 hours prior to other participants in the cohort. All safety and tolerability data (through the follow-up visit), PK data (through at least 24 hours after last dose administration), and all available PD data were reviewed from each cohort before a decision was made to dose escalate.
# Sample collection—For the PK assessment of compound of Formula (III), venous blood samples (2 to 4 mL each) were collected predose and at 15 min, 0.5, 1, 1.5, 2, 2.5, 3, 4, 6, 8, 12, 24, 36, 48, and 72 hours post-dose in Part 1. In Part 2, samples were collected predose and at 15 min, 0.5, 1, 1.5, 2, 2.5, 3, 4, 6, 8, 12 hours post-dose on day 1, predose and 1 hour post-dose on days 2-9, and predose and at 15 min, 0.5, 1, 1.5, 2, 2.5, 3, 4, 6, 8, 12, 24, 48, and 72 hours after the last dose on day 10. Plasma samples were analyzed to determine concentrations of compound of Formula (III) using a scientific validated, specific, and sensitive liquid chromatography-mass spectrometry (LC-MS/MS) method.
# The PK analysis for the compound of Formula (III) samples was performed using a non-compartmental method with validated Phoenix® WinNonlin® (version 8.0, Certara L.P.).
# [1] = 36 mg QD oral solution, fed, Day 10
# [2] = 100 mg QD oral solution, fed, Day 10
# [3] = 200 mg QD oral solution, fed, Day 10
# [4] = female, human, po, 36 mg, single 36 mg oral solution, female fasted
# [5] = female, human, po, 100 mg, single 100 mg oral solution, female fasted
# [6] = male, human, po, 4 mg, single 4 mg oral solution, male fasted
# [7] = male, human, po, 12 mg, single 12 mg oral solution, male fasted
structure (smiles),measurement,setting,value
"C=CC(=O)N[C@H]1CCC[C@H]1NC(=O)c1sc2nccc3c2c1NC(=O)N3c1cnc(CC(C)C)cc1C (atropisomer, axis not shown) [compound of Formula (III), N-((1R,2S)-2-Acrylamidocyclopentyl)-5-(S)-(6-isobutyl-4-methylpyridin-3-yl)-4-oxo-4,5-dihydro-3H-1-thia-3,5,8-triazaacenaphthylene-2-carboxamide]",ARCmax,[1],1.04
same,Cmin,[1],0.552 ng/mL
same,ARCmax,[2],0.968
same,Cmin,[2],1.51 ng/mL
same,"mean Cmax/Dose lower, capsule vs oral solution",105 mg capsule vs 100 mg solution,approximately 64%
same,Ae% dose,"200 mg QD oral solution, fed, Day 1",0.234
same,ARCmax,[3],1.21
same,Ae% dose,[3],0.234
same,CLR,[3],0.186 L/h
same,Cmin,[3],4.96 ng/mL
same,Tmax,"both sexes, human, oral, Part 2, day 1, 36-200 mg QD, read-out: median tmax across doses",1.25 to 1.77 h
same,Cmax,"both sexes, human, po, 36 mg, 36 mg QD oral solution, fed, Day 1",193 ng/mL
same,AUC(0-t),"both sexes, human, po, 36 mg, 36 mg QD oral solution, fed, Day 1, read-out: AUC0-24 h",925 ng·h/mL
same,Tmax,"both sexes, human, po, 36 mg, 36 mg QD oral solution, fed, Day 1, read-out: tmax, median (min-max)",1.5 h
same,Cmax,"both sexes, human, po, 36 mg, 36 mg QD oral solution, fed, Day 10",199 ng/mL
same,AUC(0-t),"both sexes, human, po, 36 mg, 36 mg QD oral solution, fed, Day 10, read-out: AUC0-24 h",889 ng·h/mL
same,half-life,"both sexes, human, po, 36 mg, 36 mg QD oral solution, fed, Day 10, read-out: t1/2, dom (converted)",1.5 h
same,half-life,"both sexes, human, po, 36 mg, 36 mg QD oral solution, fed, Day 10, read-out: t1/2, λz (converted)",4.9 h
same,Tmax,"both sexes, human, po, 36 mg, 36 mg QD oral solution, fed, Day 10, read-out: tmax, median (min-max)",2 h
same,Cmax,"both sexes, human, po, 100 mg, 100 mg QD oral solution, fed, Day 1",464 ng/mL
same,AUC(0-t),"both sexes, human, po, 100 mg, 100 mg QD oral solution, fed, Day 1, read-out: AUC0-24 h",1820 ng·h/mL
same,Tmax,"both sexes, human, po, 100 mg, 100 mg QD oral solution, fed, Day 1, read-out: tmax, median (min-max)",1.25 h
same,Cmax,"both sexes, human, po, 100 mg, 100 mg QD oral solution, fed, Day 10",424 ng/mL
same,AUC(0-t),"both sexes, human, po, 100 mg, 100 mg QD oral solution, fed, Day 10, read-out: AUC0-24 h",1690 ng·h/mL
same,half-life,"both sexes, human, po, 100 mg, 100 mg QD oral solution, fed, Day 10, read-out: t1/2, dom (converted)",1.8 h
same,half-life,"both sexes, human, po, 100 mg, 100 mg QD oral solution, fed, Day 10, read-out: t1/2, λz (converted)",9.6 h
same,Tmax,"both sexes, human, po, 100 mg, 100 mg QD oral solution, fed, Day 10, read-out: tmax, median (min-max)",1.53 h
same,Cmax,"both sexes, human, po, 200 mg, 200 mg QD oral solution, fed, Day 1",719 ng/mL
same,AUC(0-t),"both sexes, human, po, 200 mg, 200 mg QD oral solution, fed, Day 1, read-out: AUC0-24 h",2560 ng·h/mL
same,Tmax,"both sexes, human, po, 200 mg, 200 mg QD oral solution, fed, Day 1, read-out: tmax, median (min-max)",1.77 h
same,Cmax,"both sexes, human, po, 200 mg, 200 mg QD oral solution, fed, Day 10",839 ng/mL
same,AUC(0-t),"both sexes, human, po, 200 mg, 200 mg QD oral solution, fed, Day 10, read-out: AUC0-24 h",3160 ng·h/mL
same,half-life,"both sexes, human, po, 200 mg, 200 mg QD oral solution, fed, Day 10, read-out: t1/2, dom (converted)",1.9 h
same,half-life,"both sexes, human, po, 200 mg, 200 mg QD oral solution, fed, Day 10, read-out: t1/2, λz (converted)",23.1 h
same,Tmax,"both sexes, human, po, 200 mg, 200 mg QD oral solution, fed, Day 10, read-out: tmax, median (min-max)",2 h
same,CL renal,"both sexes, human, urine and plasma, 200 mg QD oral solution, fed, Day 1",3.1 mL/min
same,AUC(0-inf),[4],22.7 ng·h/mL
same,Cmax,[4],233 ng/mL
same,AUC(0-t),"female, human, po, 36 mg, single 36 mg oral solution, female fasted, read-out: AUC0-24 h",819 ng·h/mL
same,AUC(0-t),"female, human, po, 36 mg, single 36 mg oral solution, female fasted, read-out: AUClast",816 ng·h/mL
same,half-life,"female, human, po, 36 mg, single 36 mg oral solution, female fasted, read-out: t1/2, dom (converted)",1.6 h
same,half-life,"female, human, po, 36 mg, single 36 mg oral solution, female fasted, read-out: t1/2, λz (converted)",1.9 h
same,Tmax,"female, human, po, 36 mg, single 36 mg oral solution, female fasted, read-out: tmax, median (min-max)",1 h
same,AUC(0-inf),[5],1340 ng·h/mL
same,Cmax,[5],650 ng/mL
same,AUC(0-t),"female, human, po, 100 mg, single 100 mg oral solution, female fasted, read-out: AUC0-24 h",1420 ng·h/mL
same,AUC(0-t),"female, human, po, 100 mg, single 100 mg oral solution, female fasted, read-out: AUClast",1460 ng·h/mL
same,half-life,"female, human, po, 100 mg, single 100 mg oral solution, female fasted, read-out: t1/2, dom (converted)",1.6 h
same,half-life,"female, human, po, 100 mg, single 100 mg oral solution, female fasted, read-out: t1/2, λz (converted)",11.6 h
same,Tmax,"female, human, po, 100 mg, single 100 mg oral solution, female fasted, read-out: tmax, median (min-max)",0.5 h
same,AUC(0-inf),[6],155 ng·h/mL
same,Cmax,[6],43.5 ng/mL
same,AUC(0-t),"male, human, po, 4 mg, single 4 mg oral solution, male fasted, read-out: AUC0-24 h",157 ng·h/mL
same,AUC(0-t),"male, human, po, 4 mg, single 4 mg oral solution, male fasted, read-out: AUClast",154 ng·h/mL
same,half-life,"male, human, po, 4 mg, single 4 mg oral solution, male fasted, read-out: t1/2, dom (converted)",1.6 h
same,half-life,"male, human, po, 4 mg, single 4 mg oral solution, male fasted, read-out: t1/2, λz (converted)",1.6 h
same,Tmax,"male, human, po, 4 mg, single 4 mg oral solution, male fasted, read-out: tmax, median (min-max)",1 h
same,AUC(0-inf),[7],317 ng·h/mL
same,Cmax,[7],88 ng/mL
same,AUC(0-t),"male, human, po, 12 mg, single 12 mg oral solution, male fasted, read-out: AUC0-24 h",319 ng·h/mL
same,AUC(0-t),"male, human, po, 12 mg, single 12 mg oral solution, male fasted, read-out: AUClast",316 ng·h/mL
same,half-life,"male, human, po, 12 mg, single 12 mg oral solution, male fasted, read-out: t1/2, dom (converted)",1.5 h
